Results taken from ChEMBL document CHEMBL1240494, “Radiosynthesis and in vivo evaluation of [(11)C]MC80 for P-glycoprotein imaging” (Bioorg Med Chem, 2010).

Tests used:
[1] = tested on: Kidney; experiment: Biodistribution in FVB mouse kidney at 4.5 MBq, iv after 60 mins postinjection pretreated with cyclosporin A; assay type: ADME, organism-based; conditions: in vivo, 1 h
[2] = tested on: Liver; experiment: Biodistribution in FVB mouse liver at 4.5 MBq, iv after 60 mins postinjection pretreated with cyclosporin A; assay type: ADME, organism-based; conditions: in vivo, 1 h
[3] = tested on: Heart; experiment: Biodistribution in FVB mouse heart at 4.5 MBq, iv after 1 min postinjection; assay type: ADME, organism-based; conditions: in vivo
[4] = tested on: Lung; experiment: Biodistribution in FVB mouse lung at 4.5 MBq, iv after 1 min postinjection; assay type: ADME, organism-based; conditions: in vivo
[5] = tested on: Brain; experiment: Biodistribution in mdr1a deficient mouse brain at 4.5 MBq, iv after 60 mins postinjection; assay type: ADME, organism-based; conditions: in vivo, 1 h
[6] = tested on: Lung; experiment: Biodistribution in mdr1a deficient mouse lung at 4.5 MBq, iv after 1 min postinjection; assay type: ADME, organism-based; conditions: in vivo
[7] = tested on: Heart; experiment: Biodistribution in mdr1a deficient mouse heart at 4.5 MBq, iv after 60 mins postinjection; assay type: ADME, organism-based; conditions: in vivo, 1 h
[8] = tested on: Kidney; experiment: Biodistribution in mdr1a deficient mouse kidney at 4.5 MBq, iv after 60 mins postinjection; assay type: ADME, organism-based; conditions: in vivo, 1 h
[9] = tested on: Liver; experiment: Biodistribution in mdr1a deficient mouse liver at 4.5 MBq, iv after 60 mins postinjection; assay type: ADME, organism-based; conditions: in vivo, 1 h
[10] = Ratio of drug uptake in brain to blood in FVB mouse at 18.5 MBq, iv after 30 mins postinjection; assay type: ADME, organism-based; conditions: 0.5 h
[11] = Ratio of drug uptake in brain to blood in FVB mouse at 18.5 MBq, iv after 90 mins postinjection; assay type: ADME, organism-based; conditions: 1.5 h
[12] = Ratio of drug uptake in testes to blood in FVB mouse at 18.5 MBq, iv after 30 mins postinjection; assay type: ADME, organism-based; conditions: in vivo, 0.5 h
[13] = Ratio of drug uptake in brain to blood in FVB mouse at 18.5 MBq, iv after 1 min postinjection pretreated with cyclosporin A; assay type: ADME, organism-based
[14] = Ratio of drug uptake in brain to blood in FVB mouse at 18.5 MBq, iv after 30 mins postinjection pretreated with cyclosporin A; assay type: ADME, organism-based; conditions: 0.5 h
[15] = Partition coefficient, log D of the compound; assay type: physicochemical; conditions: octanol/water
[16] = tested on: Blood; experiment: Biodistribution in FVB mouse blood at 4.5 MBq, iv after 1 min postinjection; assay type: ADME, organism-based; conditions: in vivo
[17] = tested on: Brain; experiment: Biodistribution in FVB mouse brain at 4.5 MBq, iv after 1 min postinjection; assay type: ADME, organism-based; conditions: in vivo
[18] = tested on: Brain; experiment: Biodistribution in FVB mouse brain at 4.5 MBq, iv after 90 mins postinjection; assay type: ADME, organism-based; conditions: in vivo, 1.5 h
[19] = tested on: Liver; experiment: Biodistribution in FVB mouse liver at 4.5 MBq, iv; assay type: ADME, organism-based; conditions: in vivo
[20] = Biodistribution in FVB mouse small intestine at 4.5 MBq, iv after 1 min postinjection; assay type: ADME, organism-based; conditions: in vivo
[21] = Biodistribution in FVB mouse small intestine at 4.5 MBq, iv after 90 mins postinjection; assay type: ADME, organism-based; conditions: in vivo, 1.5 h
[22] = Biodistribution in FVB mouse large intestine at 4.5 MBq, iv after 1 min postinjection; assay type: ADME, organism-based; conditions: in vivo
[23] = Biodistribution in FVB mouse large intestine at 4.5 MBq, iv after 90 mins postinjection; assay type: ADME, organism-based; conditions: in vivo, 1.5 h
[24] = Biodistribution in FVB mouse testes at 4.5 MBq, iv after 60 mins postinjection pretreated with cyclosporin A; assay type: ADME, organism-based, Testis; conditions: in vivo, 1 h
[25] = tested on: Pancreas; experiment: Biodistribution in FVB mouse pancreas at 4.5 MBq, iv after 60 mins postinjection pretreated with cyclosporin A; assay type: ADME, organism-based; conditions: in vivo, 1 h
[26] = tested on: Spleen; experiment: Biodistribution in FVB mouse spleen at 4.5 MBq, iv after 60 mins postinjection pretreated with cyclosporin A; assay type: ADME, organism-based; conditions: in vivo, 1 h

In the case of `COc1cc2c(cc1OC)CN(Cc1ccc3cc(O[11CH3])ccc3c1)CC2`, the Drug uptake [1] is reported as 2.46 % ID/g, the Drug uptake [2] is reported as 4.86 % ID/g and the Drug uptake [3] is reported as 10.69 % ID/g. The Drug uptake [4] was 31.35 % ID/g, the Drug uptake [5] was 1.09 % ID/g and the Drug uptake [6] was 31.35 % ID/g. It also gave a Drug uptake [7] of 10.69 % ID/g, a Drug uptake [8] of 2.46 % ID/g and a Drug uptake [9] of 4.86 % ID/g. The Ratio [10] was 2.17, the Ratio [11] was 1.05 and the Ratio [12] was 3.04. It also gave a Ratio [13] of 2.91, a Ratio [14] of 1.5 and a logD [15] of 1.96. For the same molecule, the Drug uptake [16] was 2.56 % ID/g, the Drug uptake [17] was 7.66 % ID/g and the Drug uptake [18] was 0.9 % ID/g. For the same molecule, the Drug uptake [19] was 8.71 % ID/g, the Drug uptake [20] was 3.89 % ID/g and the Drug uptake [21] was 11.78 % ID/g. The Drug uptake [22] was 1.83 % ID/g, the Drug uptake [23] was 2.18 % ID/g and the Drug uptake [24] was 2.56 % ID/g. It also gave a Drug uptake [25] of 6.85 % ID/g and a Drug uptake [26] of 1.52 % ID/g.
